Laboratory results published in PMC7048748, “Anxiolytic Drug FGIN-1-27 Ameliorates Autoimmunity by Metabolic Reprogramming of Pathogenic Th17 Cells” (Scientific Reports, 2020).

Columns and labels:
[1] = system: Th17 cells; experiment: Transcript levels by qPCR in Th17 cells; type: cell-based, mouse
Method: Figure 1 FGIN-1-27 Inhibits Th17 Differentiation. Naïve CD4 T cells from spleens and lymph nodes of C57BL/6 mice were differentiated under Th17 polarization conditions and were treated with DMSO (control) or FGIN-1-27. (a) Dose response plot showing effect of FGIN-1-27 on intracellular IL-17 and viability on day 4 post activation quantified by flow cytometry. Data is normalized against DMSO (100%). […] (b) Dot plots showing DMSO or FGIN-1-27 treated cells stained for surface CD4, CD44, intracellular IL-17 and intranuclear RORγt. (c) Transcript levels for the indicated genes after 24 hours of treatment with DMSO or FGIN-1-27 quantified by qPCR. Data was normalized to a housekeeping gene, β-actin. Data are representative of at least 3 independent experiments and the error bars indicate standard deviation.
Figure 5 FGIN-1-27 induces amino acid starvation response (AAR). (a) MA-plot showing shrunken log2 fold-changes of detected genes between the DMSO and FGIN-1-27 RNA-seq samples, ranked by average normalized count. Red dots indicate differentially expressed genes at adjusted p-value <0.05. (b) Transcript levels for the indicated genes after 24 hours of treatment with DMSO or FGIN-1-27 quantified by qPCR. The error bars represent SD. (c) Western blot analysis for phosphorylated eIF2α and ATF4 24 hours after treatment with DMSO or FGIN-1-27 (5 and 10 µM). Data are representative of 3 independent experiments. (d) Amino acids in Th17 cells measured 72 hours after treatment with FGIN-1-27. The error bars represent SD. (e) ROS was measured using cell permeant reagent 2′,7′ –dichlorofluorescin diacetate (DCFDA) at 24 hours following treatment with FGIN-1-27. Filled grey histogram-DMSO, dotted line-FGIN-1-27 (10 µM) and dashed line indicates FGIN-1-27 (5 µM). […]
Total RNA extractions were performed with the RNAeasy kit (Qiagen) followed by cDNA synthesis using High capacity cDNA Reverse Transcription kit (Applied Biosystems). Quantitative PCR was performed on a ViiA 7 (Applied Biosystems) using SYBR Fast qPCR master mix (Kapa Biosystems). […]

[2] = system: Th17 cells; experiment: Intracellular metabolites by CE-MS; type: cell-based, mouse
Method: CD4 T cells were differentiated under Th17 polarization conditions and were either treated with DMSO (control) or FGIN-1-27. The error bars represent SD. (a) Genomic browser screenshots of IL-17a, IL-17f and Rorc loci depicting normalized RNA-seq read coverage (RPM) in Th17 cells treated with DMSO or FGIN-1-27 for 24 hours. […] (c) Heat map showing differentially expressed genes encoding glycolytic enzymes in Th17 cells treated with DMSO or FGIN-1-27 for 24 hours (d) Glycolytic metabolites measured in Th17 cells treated with DMSO or FGIN-1-27 for 72 hours. (e) Metabolites in the TCA cycle were measured in Th17 cells treated with DMSO or FGIN-1-27 for 72 hours.
8 million cells treated with either DMSO or FGIN-1-27 were used for extraction of intracellular metabolites. The cells were washed twice with 5% mannitol and treated with methanol to inactivate the enzymes. Next, the cell extract was treated with Milli-Q water containing internal standards (H3304-1002, Human Metabolome Technologies, inc., Tsuruoka, Japan) and left at rest for another 30 s. The extract was obtained and centrifuged at 2,300 ×g and 4 °C for 5 min and then 800 µL of upper aqueous layer was centrifugally filtered through a Millipore 5-kDa cutoff filter at 9,100 ×g and 4 °C for 120 min to remove proteins. The filtrate was centrifugally concentrated and re-suspended in 50 µL of Milli-Q water for CE-MS analysis. Cationic compounds were measured in the positive mode of CE-TOFMS and anionic compounds were measured in the positive and negative modes of CE-MS/MS according to the methods developed by Soga, et al.[39],[40]. Peaks detected by CE-TOFMS and CE-MS/MS were extracted using automatic integration software (MasterHands, Keio University, Tsuruoka, Japan and MassHunter Quantitative Analysis B.04.00, Agilent Technologies, Santa Clara, CA, USA, respectively) in order to obtain peak information including m/z, migration time (MT), and peak area. The peaks were annotated with putative metabolites from the HMT metabolite database based on their MTs in CE and m/z values determined by TOFMS. The tolerance range for the peak annotation was configured at ±0.5 min for MT and ±10 ppm for m/z. In addition, concentrations of metabolites were calculated by normalizing the peak area of each metabolite with respect to the area of the internal standard and by using standard curves, which were obtained by three-point calibrations. Hierarchical cluster analysis (HCA) and principal component analysis (PCA) were performed by Human Metabolome proprietary software, PeakStat and SampleStat, respectively. Detected metabolites were plotted on metabolic pathway maps using VANTED (Visualization and Analysis of Networks containing Experimental Data) software.

For `CCCCCCN(CCCCCC)C(=O)Cc1c(-c2ccc(F)cc2)[nH]c2ccccc12` [FGIN-1-27, N, N-di-n-hexyl 2-(4-fluorophenyl) indole-3-acetamide], the “ATF4 target genes Asns and Gpt2” value ([1]; 24 hours) was “induced”, the “expression of RORγt target genes (Il17a, Il17f, Il23r, Ltb4r1, Ccr6) and Stat3” value ([1]; 24 hours of treatment, p < 0.0001) was “significantly downregulated” and the CD5L transcript ([1]; 72 hours post treatment) was “substantial up-regulation”. For the same compound, the “TCA cycle intermediates (citric acid, cis-aconitic acid, 2-hydroxyglutaric acid, malic acid)” value ([2]; 72 hours) was “additionally reduced”, the lactate ([2]; 72 hours) was “unchanged levels” and the pyruvate ([2]; 72 hours) was “lower levels”. For the same compound, the amino acids ([2]; 72 hours post compound treatment) was “significant increase” and the “upper glycolytic intermediates (F6P, F1,6P, 3-PG, 2-PG)” value ([2]; 72 hours, vs DMSO) was “substantially reduced”.
